Laboratory results published in patent US20130117887A1, “Herbicide resistant Camelina Sativa” (Agragen Inc, priority 2010, published 2013).

Experiments:
[1] = test system: transgenic Camelina sativa lines bearing A122T-P197S-W574L mutated ALS gene; assay: Seedling herbicide assay, transgenic lines bearing triple (APW) mutated ALS gene; assay type: in vivo; settings: Blane Creek, T3, A122T-P197S-W574L
Description: Blane Creek. The seedlings were grown one week on various concentrations of herbicides MSU, CSU and IMI. The concentrations are shown in mg/l. Control plate has no herbicide in the grown media.
(§1) Seedlings of the developed transgenic lines of Camelina sativa, cultivars Blane Creek and Calena second (T1) and fourth (T3) generations were exposed to various concentration of three herbicides: imidazolinone (IMI), chlorsulfuron (CSU) and metsulfuron (MSU). Resistance of the transgenic lines was compared to control non-transgenic seedlings of C. sativa cv. Blane Creek.
(§2) Seeds were sterilized in 2% Na-hypocloride and placed on wet filter paper in sterile conditions to allow germination. On the next day well-germinated seedlings were transferred on Petri dishes containing MS (Murasige-Scoog) 0.7% agar (without sucrose or hormones). Each dish contained one from the three herbicides in particular concentration (0.0001, 0.001, 0.01, 0.1, 1.0, 10, 100 mg/l). After one week of cultivation in vitro (+25° C./+18° C.; light/dark) the seedlings were photographed (as shown on the FIGS. 16A-16F). The highest survival concentration was found for each transgenic line and for each herbicide and compared to the non-transgenic control.

[2] = test system: transgenic C. sativa cv. Celine lines VK6-A1-No24 and VK6-A1-No26 (35S promoter, ALS W574 mutant); assay: In vitro leaf segment test, transgenic lines; assay type: cell-based, Camelina sativa; settings: media with 0.001, 0.01, 0.1, 1.0 mg/l herbicide, FIG. 13
From the text: (§3) FIG. 13 In vitro leaf segment test of two transgenic C. sativa cv. Celine lines VK6-A1-No24 (shown as 24 on Petri dishes) and VK6-Al-No26 (shown as 26 on Petri dishes). As a control, leaf segments of herbicide resistant natural mutant of Camelina microcarpa (C.m.) and leaf segments of susceptible C. sativa (C.s.) were used. Leaf segments of transgenic plants are resistant to the herbicides, while non-transgenic Camelina sativa is susceptible. The media in Petri dishes contains herbicides in various concentrations from 0 mg/l in control plate to 0.001, 0.01, 0.1, 1.0 mg/l of IMI, MSU and CSU.
(§4) Celine lines VK6-A1-No24 and VK6-A1-No26 transformed with Al construct (35S promoter—ALS W574 mutant—35S terminator). As controls, we used leaf segments of herbicide resistant natural ALS mutant of Camelina microcarpa that has broad resistance to class-2 herbicides and leaf segments of susceptible Camelina sativa. From the figure it can be clearly seen that leaf segments of transgenic plants are resistant to the herbicides, while non-transgenic Camelina sativa is susceptible.

[3] = test system: non-transgenic seedlings of C. sativa cv. Blane Creek (wild type); assay: Seedling herbicide assay, highest survival concentration, non-transgenic control; assay type: in vivo, Camelina sativa; settings: for Highest surviving concentration: seedlings one week on MS agar
From the text: as §1, §2

[4] = test system: transgenic Camelina sativa lines bearing P197S-W574L mutated ALS gene; assay: Seedling herbicide assay, transgenic lines bearing double (PW) mutated ALS gene; assay type: in vivo; settings: for Effect as compared to control / Highest surviving concentration: Blane Creek, T3, P197S-W574L
Description: Blane Creek. The seedlings were grown one week on the various concentrations of herbicides MSU, CSU and IMI. The concentrations are shown in mg/l. Control plate has no herbicide in the growth media.
as §1, §2

[5] = test system: transgenic Camelina sativa lines bearing W574L mutated ALS gene; assay: Seedling herbicide assay, transgenic lines bearing W-mutated (W574L) ALS gene; assay type: in vivo; settings: for Effect as compared to control / Highest surviving concentration: Blane Creek
Description: Blane Creek and ALS23.3 (VK10A2.3) of the […] (T3) of Camelina sativa v. Blane Creek. The seedlings were grown one week on various concentrations of herbicides MSU, CSU and IMI. The concentrations are shown in mg/l. Control plate has no herbicide in the grown media.
as §1, §2

[6] = test system: transgenic Camelina sativa lines bearing A122T mutated ALS gene; assay: Seedling herbicide assay, transgenic lines bearing A-mutated (A122T) ALS gene; assay type: in vivo; settings: for Effect as compared to control / Highest surviving concentration: T1, A122T
Description: Calena, as well as A9.1 (VK14A9.1) and A9.2 (VK14A9.4.2) of the second generation (T1) Camelina sativa v. Blane Creek. The seedlings were grown one week on the various concentrations of herbicides MSU, CSU and IMI. The concentrations are shown in mg/l. Control plate has no herbicide in the grown media.
as §1, §2

[7] = test system: non-transgenic susceptible Camelina sativa leaf segments; assay: In vitro leaf segment test, non-transgenic control; assay type: cell-based; settings: media with 0.001, 0.01, 0.1, 1.0 mg/l herbicide, FIG. 13
From the text: as §3, §4

[8] = test system: transgenic Camelina sativa lines bearing P197S mutated ALS gene; assay: Seedling herbicide assay, transgenic lines bearing P-mutated (P197S) ALS gene; assay type: in vivo; settings: for Effect as compared to control / Highest surviving concentration: T1, P197S
Description: Calena and A 10 (VK14A10.16) of the second generation (T1) Camelina sativa c. Blane Creek. The seedlings were grown one week on various concentrations of herbicides MSU, CSU and IMI. The concentrations are shown in mg/l.
as §1, §2

[9] = line ALS23.3 (VK10A2.3), T3, W574L
[10] = line A9.1 (VK14A9.1), Blane Creek
[11] = line A9.2 (VK14A9.4.2), Blane Creek
[12] = line A10 (VK14A10.16), Blane Creek

SMILES	Effect as compared to control ([1]; line ALS 11.3 (VK10A5.3))	Highest surviving concentration ([1]; line ALS 11.3 (VK10A5.3)) [mg/L]	Effect as compared to control ([1]; line ALS22.3 (VK13A15.12))	Highest surviving concentration ([1]; line ALS22.3 (VK13A15.12)) [mg/L]	response of leaf segments to the herbicides [2]	Effect as compared to control [3]	Highest surviving concentration [3] [mg/L]	Effect as compared to control ([4]; line ALS7.3 (KK24A14.4))	Highest surviving concentration ([4]; line ALS7.3 (KK24A14.4)) [mg/L]	Effect as compared to control ([4]; line ALS8.3 (KK18A8))	Highest surviving concentration ([4]; line ALS8.3 (KK18A8)) [mg/L]	spectrum of resistance of mutation W [5]	Effect as compared to control ([5]; line A2 (VK10A2.2), T1, W574L)	Highest surviving concentration ([5]; line A2 (VK10A2.2), T1, W574L) [mg/L]	Effect as compared to control [5, 9]	Highest surviving concentration [5, 9] [mg/L]	Effect as compared to control ([6]; line A3 (VK9A3.4.1), Calena)	Highest surviving concentration ([6]; line A3 (VK9A3.4.1), Calena) [mg/L]	Effect as compared to control [6, 10]	Highest surviving concentration [6, 10] [mg/L]	further results
COC(=O)c1ccccc1S(=O)(=O)NC(=O)Nc1nc(C)nc(OC)n1 [MSU, Metsulfuron-methyl]	100	0.1	1 000	1.0	resistant	1	0.001	1 000	1.0	1 000	1.0	less effective	100	0.1	100	0.1	10	0.01	1	0.001	increase in resistance as compared to non-transgenic control ([4]; lines bearing double mutations PW): 1 000; Effect as compared to control [6, 11]: 1; Highest surviving concentration [6, 11]: 0.001 mg/L; response of leaf segments to the herbicides [7]: susceptible; Effect as compared to control ([8]; line A4 (VK9A4.4.2), Calena): 10; Highest surviving concentration ([8]; line A4 (VK9A4.4.2), Calena): 0.01 mg/L; Effect as compared to control [8, 12]: 10; Highest surviving concentration [8, 12]: 0.01 mg/L
COc1nc(C)nc(NC(=O)NS(=O)(=O)c2ccccc2Cl)n1 [CSU, Chlorsulfuron]	10 000	10	10 000	10	resistant	1	0.001	10 000	10	10 000	10	good resistance	10 000	10	1 000	1.0	10	0.01	1	0.001	Effect as compared to control [6, 11]: 10; Highest surviving concentration [6, 11]: 0.01 mg/L; response of leaf segments to the herbicides [7]: susceptible; spectrum of resistance of mutation P [8]: specifically increased resistance; Effect as compared to control ([8]; line A4 (VK9A4.4.2), Calena): 10 000; Highest surviving concentration ([8]; line A4 (VK9A4.4.2), Calena): 10 mg/L; Effect as compared to control [8, 12]: 1 000; Highest surviving concentration [8, 12]: 1.0 mg/L
COCc1cnc(C2=NC(C)(C(C)C)C(=O)N2)c(C(=O)O)c1 (stereo not drawn) [IMI, Imazamox]	1 000	10	1 000	10	resistant	1	0.01	1 000	10	1 000	10	good resistance	10 000	100	1 000	10	1 000	10	100	1.0	spectrum of resistance of mutation A [6]: specifically increased resistance; Effect as compared to control [6, 11]: 1 000; Highest surviving concentration [6, 11]: 10 mg/L; response of leaf segments to the herbicides [7]: susceptible; Effect as compared to control ([8]; line A4 (VK9A4.4.2), Calena): 10; Highest surviving concentration ([8]; line A4 (VK9A4.4.2), Calena): 0.1 mg/L; Effect as compared to control [8, 12]: 10; Highest surviving concentration [8, 12]: 0.1 mg/L
